Values quoted from earlier work in US11077150B2, “Methods and compositions for treatment of eye conditions” (priority 2018, dated 2021).

Assays:
CB2 receptors = CB2 receptors (Homo sapiens, UniProt P34972)
[1] = rat model of DR
[2] = 75 symptomatic patients; nine-month trial; eye drops
[3] = topically applied in light mineral oil; volunteers
[4] = oral doses of up to 600 mg; elderly subjects

Chain of CB2 receptors (P34972 whole entry): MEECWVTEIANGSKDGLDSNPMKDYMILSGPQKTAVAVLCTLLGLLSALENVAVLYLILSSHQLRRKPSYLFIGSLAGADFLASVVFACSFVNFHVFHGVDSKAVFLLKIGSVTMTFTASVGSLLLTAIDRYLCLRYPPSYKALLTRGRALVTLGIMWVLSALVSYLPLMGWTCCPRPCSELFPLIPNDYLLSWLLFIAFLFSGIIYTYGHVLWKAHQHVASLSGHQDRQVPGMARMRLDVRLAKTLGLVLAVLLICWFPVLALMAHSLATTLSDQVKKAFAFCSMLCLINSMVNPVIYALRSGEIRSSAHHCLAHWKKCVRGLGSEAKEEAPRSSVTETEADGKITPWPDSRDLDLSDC

SMILES: C=C(C)[C@@H]1CCC(C)=C[C@H]1c1c(O)cc(CCCCC)cc1O [Cannabidiol, cannabidiol]
- affinity for CB2 receptors (CB2 receptors): low affinity
- water solubility: very low
- oxidative stress and neurotoxicity [1]: significantly reduced
- retinal cell death [1]: prevented

SMILES: CC(=O)NCCC(=O)N[C@@H](Cc1cnc[nH]1)C(=O)O [N-acetyl carnosine]
- glare sensitivity [2]: significant improvement
- visual acuity [2]: improvement

SMILES: CCCCCc1cc(O)c2c(c1)OC(C)(C)[C@@H]1CCC(C)=C[C@@H]21 [THC, Δ^9-tetrahydrocannabinol]
- adverse effects [3]: burning sensation, lid swelling
- effect on interocular pressure [3]: did not improve

SMILES: O=C(O)CCCCC1CCSS1 (stereo not drawn) [lipoic acid, α-lipoic acid]
- tolerability [4]: well tolerated
